Each compound was assayed against cloned human NR1/NR2B ion channels (Homo sapiens (Human), UniProt Q05586+Q13224) (assay: HNR2BC: effects of test articles on cloned human NR1/NR2B ion channels expressed in mammalian cells (FLIPR calcium flux)). Conditions: cloned human NR1/NR2B ion channels, Table 5.
Type: cell-based
How it was run: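 Compounds were added to dye-loaded cells for 5 min with fluorescence monitored for agonism, followed by co-agonists (glutamate ~EC80, glycine 10 μM saturating) for 5 min. Cells stably expressed inducible human NR1/NR2B, and the buffer was pH 7.4. The FLIPR Ca2+ flux signal was normalized against control wells.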

Chain of cloned human NR1/NR2B ion channels (Q13224 27-1484, other chains not shown): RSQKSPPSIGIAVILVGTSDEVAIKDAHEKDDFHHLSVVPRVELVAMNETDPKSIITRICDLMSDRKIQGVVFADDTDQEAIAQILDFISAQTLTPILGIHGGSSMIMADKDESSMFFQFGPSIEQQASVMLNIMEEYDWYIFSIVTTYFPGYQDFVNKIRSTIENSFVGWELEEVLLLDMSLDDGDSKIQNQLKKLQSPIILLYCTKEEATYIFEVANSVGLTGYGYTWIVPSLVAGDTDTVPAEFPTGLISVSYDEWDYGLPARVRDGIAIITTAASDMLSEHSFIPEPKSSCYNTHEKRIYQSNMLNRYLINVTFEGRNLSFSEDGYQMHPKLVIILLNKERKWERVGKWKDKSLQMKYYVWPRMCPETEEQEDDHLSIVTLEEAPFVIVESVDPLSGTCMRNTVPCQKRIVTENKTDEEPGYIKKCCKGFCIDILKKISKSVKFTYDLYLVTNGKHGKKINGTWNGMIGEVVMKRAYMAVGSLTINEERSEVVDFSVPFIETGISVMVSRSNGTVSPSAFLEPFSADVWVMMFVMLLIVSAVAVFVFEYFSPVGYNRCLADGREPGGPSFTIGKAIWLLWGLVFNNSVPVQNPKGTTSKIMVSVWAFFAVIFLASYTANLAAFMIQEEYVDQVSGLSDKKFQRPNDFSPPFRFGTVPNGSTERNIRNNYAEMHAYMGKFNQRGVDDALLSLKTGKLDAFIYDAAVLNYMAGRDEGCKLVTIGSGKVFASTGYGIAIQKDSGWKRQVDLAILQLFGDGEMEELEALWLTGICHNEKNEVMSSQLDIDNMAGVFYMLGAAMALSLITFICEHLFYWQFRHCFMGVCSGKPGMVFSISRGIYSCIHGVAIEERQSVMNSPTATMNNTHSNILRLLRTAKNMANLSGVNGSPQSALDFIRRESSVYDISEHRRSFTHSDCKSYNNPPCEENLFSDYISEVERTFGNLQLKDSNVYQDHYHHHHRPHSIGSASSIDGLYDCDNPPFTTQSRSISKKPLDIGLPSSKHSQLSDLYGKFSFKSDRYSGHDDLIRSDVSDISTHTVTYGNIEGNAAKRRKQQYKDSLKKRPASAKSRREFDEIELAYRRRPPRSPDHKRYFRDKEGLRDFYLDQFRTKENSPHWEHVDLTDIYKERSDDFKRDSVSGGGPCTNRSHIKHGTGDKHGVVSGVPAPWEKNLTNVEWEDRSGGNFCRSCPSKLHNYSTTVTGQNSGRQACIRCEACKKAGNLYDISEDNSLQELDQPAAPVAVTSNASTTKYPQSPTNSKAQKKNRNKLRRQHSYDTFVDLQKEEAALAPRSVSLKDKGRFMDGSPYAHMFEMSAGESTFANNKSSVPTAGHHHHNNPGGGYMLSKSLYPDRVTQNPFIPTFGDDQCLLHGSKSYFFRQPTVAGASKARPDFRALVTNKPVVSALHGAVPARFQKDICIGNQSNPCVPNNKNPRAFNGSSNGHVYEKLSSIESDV

Point of comparison: Cc1cn(CC(=O)N2CCCC2)c2cc(-c3ccc(F)c(F)c3F)cnc12 [Example 591, 2-[3-Methyl-6-(2,3,4-trifluorophenyl)pyrrolo[3,2-b]pyridin-1-yl]-1-pyrrolidin-1-yl-ethanone], IC50 0.126 µM. Against it:
- CCN(C)C(=O)Cn1cc(C)c2ncc(-c3cccc(C)c3F)cc21 [Example 560, N-Ethyl-2-[6-(2-fluoro-3-methyl-phenyl)-3-methyl-pyrrolo[3,2-b]pyridin-1-yl]-N-methyl-acetamide] — 6.3-fold higher, 0.794 µM
- Cc1cccc(-c2cnc3c(C)cn(CC(=O)N4CCC4)c3c2)c1F [Example 561, 1-(Azetidin-1-yl)-2-[6-(2-fluoro-3-methyl-phenyl)-3-methyl-pyrrolo[3,2-b]pyridin-1-yl]ethanone] — 3.2-fold higher, 0.398 µM
- Cc1cccc(-c2cnc3c(C)cn(CC(=O)N(C)C)c3c2)c1F [Example 562, 2-[6-(2-Fluoro-3-methyl-phenyl)-3-methyl-pyrrolo[3,2-b]pyridin-1-yl]-N,N-dimethyl-acetamide] — 2.5-fold lower, 0.0501 µM
- Cc1cccc(-c2cnc3c(C)cn(CC(=O)N4CC(F)C4)c3c2)c1F [Example 563, 1-(3-Fluoroazetidin-1-yl)-2-[6-(2-fluoro-3-methyl-phenyl)-3-methyl-pyrrolo[3,2-b]pyridin-1-yl]ethanone] — 3.2-fold lower, 0.0398 µM
- Cc1cccc(-c2cnc3c(C)cn(CC(=O)N4CC(F)(F)C4)c3c2)c1F [Example 564, 1-(3,3-Difluoroazetidin-1-yl)-2-[6-(2-fluoro-3-methyl-phenyl)-3-methyl-pyrrolo[3,2-b]pyridin-1-yl]ethanone] — within 1.5-fold, 0.1 µM
- Cc1cccc(-c2cnc3c(C)cn(CC(=O)N4CCCC4)c3c2)c1F [Example 565, 2-[6-(2-Fluoro-3-methyl-phenyl)-3-methyl-pyrrolo[3,2-b]pyridin-1-yl]-1-pyrrolidin-1-yl-ethanone] — the same, 0.126 µM
- Cc1cc(-c2cnc3c(C)cn(CC(=O)N(C)C)c3c2)ccc1F [Example 566, 2-[6-(4-Fluoro-3-methyl-phenyl)-3-methyl-pyrrolo[3,2-b]pyridin-1-yl]-N,N-dimethyl-acetamide] — 2.5-fold lower, 0.0501 µM
- Cc1cn(CC(=O)N2CCCC2)c2cc(-c3cccc(C(F)(F)F)c3)cnc12 [Example 567, 2-[3-Methyl-6-[3-(trifluoromethyl)phenyl]pyrrolo[3,2-b]pyridin-1-yl]-1-pyrrolidin-1-yl-ethanone] — 1.6-fold higher, 0.2 µM
- CCN(C)C(=O)Cn1cc(C)c2ncc(-c3cccc(C(F)(F)F)c3)cc21 [Example 568, N-Ethyl-N-methyl-2-[3-methyl-6-[3-(trifluoromethyl)phenyl]pyrrolo[3,2-b]pyridin-1-yl]acetamide] — 4-fold higher, 0.501 µM
- Cc1cn(CC(=O)N2CC(F)(F)C2)c2cc(-c3cccc(C(F)(F)F)c3)cnc12 [Example 569, 1-(3,3-Difluoroazetidin-1-yl)-2-[3-methyl-6-[3-(trifluoromethyl)phenyl]pyrrolo[3,2-b]pyridin-1-yl]ethanone] — 3.2-fold higher, 0.398 µM
- Cc1cn(CC(=O)N2CCC2)c2cc(-c3cc(F)c(F)c(F)c3)cnc12 [Example 570, 1-(Azetidin-1-yl)-2-[3-methyl-6-(3,4,5-trifluorophenyl)pyrrolo[3,2-b]pyridin-1-yl]ethanone] — 2-fold lower, 0.0631 µM
- Cc1cn(CC(=O)N(C)C)c2cc(-c3cc(F)c(F)c(F)c3)cnc12 [Example 571, N,N-Dimethyl-2-[3-methyl-6-(3,4,5-trifluorophenyl)pyrrolo[3,2-b]pyridin-1-yl]acetamide] — 2.5-fold lower, 0.0501 µM
- Cc1cccc(-c2cnc3c(C)cn(CC(=O)N(C)C)c3c2)c1 [Example 572, N,N-Dimethyl-2-[3-methyl-6-(m-tolyl)pyrrolo[3,2-b]pyridin-1-yl]acetamide] — 1.6-fold lower, 0.0794 µM
- Cc1csc(-c2cnc3c(C)cn(CC(=O)N(C)C)c3c2)c1 [Example 573, N,N-Dimethyl-2-[3-methyl-6-(4-methyl-2-thienyl)pyrrolo[3,2-b]pyridin-1-yl]acetamide] — the same, 0.126 µM
- Cc1csc(-c2cnc3c(C)cn(CC(=O)N4CCC4)c3c2)c1 [Example 574, 1-(Azetidin-1-yl)-2-[3-methyl-6-(4-methyl-2-thienyl)pyrrolo[3,2-b]pyridin-1-yl]ethanone] — 1.6-fold lower, 0.0794 µM
- Cc1csc(-c2cnc3c(C)cn(CC(=O)N4CC(F)C4)c3c2)c1 [Example 575, 1-(3-Fluoroazetidin-1-yl)-2-[3-methyl-6-(4-methyl-2-thienyl)pyrrolo[3,2-b]pyridin-1-yl]ethanone] — 1.6-fold lower, 0.0794 µM
- Cc1cn(CC(=O)N(C)C)c2cc(-c3ccccc3)cnc12 [Example 576, N,N-Dimethyl-2-(3-methyl-6-phenyl-pyrrolo[3,2-b]pyridin-1-yl)acetamide] — within 1.5-fold, 0.1 µM
- CCN(C)C(=O)Cn1cc(C)c2ncc(-c3ccccc3)cc21 [Example 577, N-Ethyl-N-methyl-2-(3-methyl-6-phenyl-pyrrolo[3,2-b]pyridin-1-yl)acetamide] — 1.6-fold higher, 0.2 µM
- Cc1cn(CC(=O)N2CC(F)C2)c2cc(-c3ccccc3)cnc12 [Example 578, 1-(3-Fluoroazetidin-1-yl)-2-(3-methyl-6-phenyl-pyrrolo[3,2-b]pyridin-1-yl)ethanone] — the same, 0.126 µM
- Cc1cn(CC(=O)N2CC(F)(F)C2)c2cc(-c3ccccc3)cnc12 [Example 579, 1-(3,3-Difluoroazetidin-1-yl)-2-(3-methyl-6-phenyl-pyrrolo[3,2-b]pyridin-1-yl)ethanone] — 2-fold lower, 0.0631 µM
- Cc1cc(-c2cnc3c(C)cn(CC(=O)N4CC(F)C4)c3c2)ccc1F [Example 580, 1-(3-Fluoroazetidin-1-yl)-2-[6-(4-fluoro-3-methyl-phenyl)-3-methyl-pyrrolo[3,2-b]pyridin-1-yl]ethanone] — 1.6-fold lower, 0.0794 µM
- Cc1cccc(-c2cnc3c(C)cn(CC(=O)N4CCC4)c3c2)c1 [Example 581, 1-(Azetidin-1-yl)-2-[3-methyl-6-(m-tolyl)pyrrolo[3,2-b]pyridin-1-yl]ethanone] — 1.6-fold lower, 0.0794 µM
- Cc1cn(CC(=O)N2CCC2)c2cc(-c3ccc(F)c(F)c3F)cnc12 [Example 582, 1-(Azetidin-1-yl)-2-[3-methyl-6-(2,3,4-trifluorophenyl)pyrrolo[3,2-b]pyridin-1-yl]ethanone] — 3.2-fold lower, 0.0398 µM
- Cc1cn(CC(=O)N(C)C)c2cc(-c3ccc(F)c(F)c3F)cnc12 [Example 583, N,N-Dimethyl-2-[3-methyl-6-(2,3,4-trifluorophenyl)pyrrolo[3,2-b]pyridin-1-yl]acetamide] — the same, 0.126 µM
- CCN(C)C(=O)Cn1cc(C)c2ncc(-c3ccc(F)c(F)c3F)cc21 [Example 584, N-Ethyl-N-methyl-2-[3-methyl-6-(2,3,4-trifluorophenyl)pyrrolo[3,2-b]pyridin-1-yl]acetamide] — 3.2-fold higher, 0.398 µM
- Cc1cn(CC(=O)N2CCC2)c2cc(-c3cccc(C(F)(F)F)c3F)cnc12 [Example 585, 1-(Azetidin-1-yl)-2-[6-[2-fluoro-3-(trifluoromethyl)phenyl]-3-methyl-pyrrolo[3,2-b]pyridin-1-yl]ethanone] — 2-fold higher, 0.251 µM
- Cc1cn(CC(=O)N(C)C)c2cc(-c3cccc(C(F)(F)F)c3F)cnc12 [Example 586, 2-[6-[2-Fluoro-3-(trifluoromethyl)phenyl]-3-methyl-pyrrolo[3,2-b]pyridin-1-yl]-N,N-dimethyl-acetamide] — the same, 0.126 µM
- CCN(C)C(=O)Cn1cc(C)c2ncc(-c3cccc(C(F)(F)F)c3F)cc21 [Example 587, N-Ethyl-2-[6-[2-fluoro-3-(trifluoromethyl)phenyl]-3-methyl-pyrrolo[3,2-b]pyridin-1-yl]-N-methyl-acetamide] — 2-fold higher, 0.251 µM
- Cc1cn(CC(=O)N2CC(F)C2)c2cc(-c3ccc(F)c(F)c3F)cnc12 [Example 588, 1-(3-Fluoroazetidin-1-yl)-2-[3-methyl-6-(2,3,4-trifluorophenyl)pyrrolo[3,2-b]pyridin-1-yl]ethanone] — 5-fold higher, 0.631 µM
- Cc1cn(CC(=O)N2CC(F)C2)c2cc(-c3cccc(C(F)(F)F)c3F)cnc12 [Example 589, 1-(3-Fluoroazetidin-1-yl)-2-[6-[2-fluoro-3-(trifluoromethyl)phenyl]-3-methyl-pyrrolo[3,2-b]pyridin-1-yl]ethanone] — the same, 0.126 µM
- Cc1cn(CC(=O)N2CCCC2)c2cc(-c3cccc(C(F)(F)F)c3F)cnc12 [Example 590, 2-[6-[2-Fluoro-3-(trifluoromethyl)phenyl]-3-methyl-pyrrolo[3,2-b]pyridin-1-yl]-1-pyrrolidin-1-yl-ethanone] — 2.5-fold higher, 0.316 µM
- Cc1cn(CC(=O)N2CCC2)c2cc(-c3ccccc3F)cnc12 [Example 592, 1-(Azetidin-1-yl)-2-[6-(2-fluorophenyl)-3-methyl-pyrrolo[3,2-b]pyridin-1-yl]ethanone] — the same, 0.126 µM
- Cc1cn(CC(=O)N(C)C)c2cc(-c3ccccc3F)cnc12 [Example 593, 2-[6-(2-Fluorophenyl)-3-methyl-pyrrolo[3,2-b]pyridin-1-yl]-N,N-dimethyl-acetamide] — 2-fold higher, 0.251 µM
- CCN(C)C(=O)Cn1cc(C)c2ncc(-c3ccccc3F)cc21 [Example 594, N-Ethyl-2-[6-(2-fluorophenyl)-3-methyl-pyrrolo[3,2-b]pyridin-1-yl]-N-methyl-acetamide] — 6.3-fold higher, 0.794 µM
- Cc1cn(CC(=O)N2CC(F)(F)C2)c2cc(-c3cccc(C(F)(F)F)c3F)cnc12 [Example 595, 1-(3,3-Difluoroazetidin-1-yl)-2-[6-[2-fluoro-3-(trifluoromethyl)phenyl]-3-methyl-pyrrolo[3,2-b]pyridin-1-yl]ethanone] — 2-fold higher, 0.251 µM
- Cc1cn(CC(=O)N2CC(F)(F)C2)c2cc(-c3ccc(F)c(F)c3F)cnc12 [Example 596, 1-(3,3-Difluoroazetidin-1-yl)-2-[3-methyl-6-(2,3,4-trifluorophenyl)pyrrolo[3,2-b]pyridin-1-yl]ethanone] — 2.5-fold lower, 0.0501 µM
- Cc1cn(CC(=O)N2CC(F)(F)C2)c2cc(-c3ccccc3F)cnc12 [Example 597, 1-(3,3-Difluoroazetidin-1-yl)-2-[6-(2-fluorophenyl)-3-methyl-pyrrolo[3,2-b]pyridin-1-yl]ethanone] — 2.5-fold higher, 0.316 µM
- Cc1cn(CC(=O)N2CC(F)C2)c2cc(-c3cc(F)c(F)c(F)c3)cnc12 [Example 598, 1-(3-Fluoroazetidin-1-yl)-2-[3-methyl-6-(3,4,5-trifluorophenyl)pyrrolo[3,2-b]pyridin-1-yl]ethanone] — 3.2-fold lower, 0.0398 µM
